# Read-outs that look alike come from different tables or passages of the source.
# Tests used:
# hCA II = target: T1, hCA II (Homo sapiens, UniProt P00918); experiment: stopped-flow CO2 hydration assay; assay type: biochemical
# T1 construct: gene CA2; cytosolic isoform
# Excerpt: (§1) stopped-flow CO2 hydration assay on hCA II
# hCA I = target: T2, hCA I (Homo sapiens, UniProt P00915); experiment: stopped-flow CO2 hydration assay; assay type: biochemical
# T2 construct: gene CA1; cytosolic isoform
# Excerpt: stopped-flow CO2 hydration assay on hCA I
# [1] = stopped-flow CO2 hydration assay; assay type: biochemical, Homo sapiens; conditions: read-out: KI (nM) ^* / hCA I
# Excerpt: as §1
# T2 sequence (P00915 2-261): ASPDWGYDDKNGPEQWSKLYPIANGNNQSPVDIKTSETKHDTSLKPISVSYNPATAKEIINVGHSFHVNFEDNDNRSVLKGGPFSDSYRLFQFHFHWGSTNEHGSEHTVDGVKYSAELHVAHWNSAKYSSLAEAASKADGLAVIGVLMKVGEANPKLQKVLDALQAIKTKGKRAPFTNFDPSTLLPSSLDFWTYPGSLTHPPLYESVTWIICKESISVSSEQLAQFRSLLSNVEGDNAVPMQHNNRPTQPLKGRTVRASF
Structure (SMILES),Ki (hCA II) [nM],Ki (hCA I) [nM],"Ki (hCA II; CO2 […], […] Hepes pH […] Na2SO4, […] min preincubation at room temperature) [nM]",Ki [1] [nM]
"CCOC(=O)c1cnc2ccc(OC)cc2c1Nc1cccc(S(N)(=O)=O)c1 [6c, Ethyl 6-methoxy-4-((3-sulphamoylphenyl)amino)quinoline-3-carboxylate]",175,966,–,–
"CCOC(=O)c1cnc2cc(Cl)cc(Cl)c2c1Nc1cccc(S(N)(=O)=O)c1 [6f, Ethyl 5,7-dichloro-4-((3-sulphamoylphenyl)amino)quinoline-3-carboxylate]",–,> 10000,–,> 10000
"CCOC(=O)c1cnc2cc(Cl)c(F)cc2c1Nc1cccc(S(=O)(=O)NC)c1 [compound 11, Ethyl 7-chloro-6-fluoro-4-((3-(N-methylsulphamoyl)phenyl)amino)quinoline-3-carboxylate]",–,> 10000,–,> 10000

# Now from value to molecule:
Ki (hCA II) [nM],Ki (hCA I) [nM],"Ki (hCA II; CO2 […], […] Hepes pH […] Na2SO4, […] min preincubation at room temperature) [nM]",Ki [1] [nM],Structure (SMILES)
223,4230,–,–,"CCOC(=O)c1cnc2ccccc2c1Nc1cccc(S(N)(=O)=O)c1 [6a, Ethyl 4-((3-sulphamoylphenyl)amino)quinoline-3-carboxylate]"
782,6640,–,–,"CCOC(=O)c1cnc2ccc(C)cc2c1Nc1cccc(S(N)(=O)=O)c1 [6b, Ethyl 6-methyl-4-((3-sulphamoylphenyl)amino)quinoline-3-carboxylate]"
3590,9090,–,–,"CCOC(=O)c1cnc2ccc(Br)cc2c1Nc1cccc(S(N)(=O)=O)c1 [6d, Ethyl 6-bromo-4-((3-sulphamoylphenyl)amino)quinoline-3-carboxylate]"
–,7600,83.3,–,"CCOC(=O)c1cnc2cc(Cl)c(F)cc2c1Nc1cccc(S(N)(=O)=O)c1 [6e, Ethyl 7-chloro-6-fluoro-4-((3-sulphamoylphenyl)amino)quinoline-3-carboxylate]"
